Results taken from patent US20240383954A1, “PEPTIDE INHIBITORS OF INTERLEUKIN-23 RECEPTOR AND THEIR USE TO TREAT INFLAMMATORY DISEASES” (Janssen Biotech, Inc., priority 2020, published 2024).
pIC50: −log10 of the molar value. Starred links: 1 amine or outer side, 2 acyl side, 3 side chain; linkers in the order of their positions; H or OH if unused. Positions of bridges follow the written chain, without caps; N, C: chain ends. Non-standard residues stand in square brackets, D forms with d. Residues, ends and D or L forms follow the SMILES beside them. Trp(7-Ph) = N[C@@H](Cc1c[nH]c2c(-c3ccccc3)cccc12)C(=O)O; Trp(7-Me) = Cc1cccc2c(C[C@H](N)C(=O)O)c[nH]c12; Abu(4-yl) = O=C([C@H](CC[*:3])N[*:1])[*:2]; 2Nal = N[C@@H](Cc1ccc2ccccc2c1)C(=O)O; AEF = NCCOc1ccc(C[C@H](N)C(=O)O)cc1; αMeF = C[C@](N)(Cc1ccccc1)C(=O)O; Cit = NC(=O)NCCC[C@H](N)C(=O)O; Pen = CC(C)(S)[C@H](N)C(=O)O; αMeK = C[C@](N)(CCCCN)C(=O)O; dDap = NC[C@@H](N)C(=O)O; Aib = CC(C)(N)C(=O)O

Target: T1, IL-23R (Homo sapiens, UniProt Q5VWK5)
Assay: cell-based
Conditions: PBMC pSTAT3 IC50 (nM), PBMCs from healthy donors, IL-23 5 ng/mL, 30 minutes, phosphorylated STAT3

T1 sequence (Q5VWK5 24-629): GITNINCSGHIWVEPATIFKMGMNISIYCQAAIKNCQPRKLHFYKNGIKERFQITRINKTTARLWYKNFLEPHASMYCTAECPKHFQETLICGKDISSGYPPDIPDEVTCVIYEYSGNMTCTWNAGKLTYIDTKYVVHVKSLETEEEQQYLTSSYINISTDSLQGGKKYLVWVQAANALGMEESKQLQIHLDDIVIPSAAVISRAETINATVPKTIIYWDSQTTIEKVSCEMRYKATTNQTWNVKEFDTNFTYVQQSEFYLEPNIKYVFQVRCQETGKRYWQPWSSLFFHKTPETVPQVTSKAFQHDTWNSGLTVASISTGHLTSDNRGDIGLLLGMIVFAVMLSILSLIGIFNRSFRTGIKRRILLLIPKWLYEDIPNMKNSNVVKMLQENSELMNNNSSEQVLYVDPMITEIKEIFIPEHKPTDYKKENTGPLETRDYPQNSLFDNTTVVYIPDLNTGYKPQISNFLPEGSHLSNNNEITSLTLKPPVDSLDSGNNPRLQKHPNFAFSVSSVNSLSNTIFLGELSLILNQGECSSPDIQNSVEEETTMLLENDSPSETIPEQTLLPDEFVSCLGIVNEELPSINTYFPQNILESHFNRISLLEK

| SMILES | IC50 |
| --- | --- |
| CCC(=O)N[C@H](CCCNC(=N)N)C(=O)N[C@@H]1C(=O)N[C@@H](CCC(N)=O)C(=O)N[C@@H]([C@@H](C)O)C(=O)N[C@@H](Cc2c[nH]c3ccccc23)C(=O)N[C@@H](CCC(N)=O)C(=O)N[C@H](C(=O)N[C@@H](Cc2ccc(OCCN)cc2)C(=O)N[C@@H](Cc2ccc3ccccc3c2)C(=O)NC2(C(=O)N[C@@H](CCCCNC(=O)C(F)(F)F)C(=O)N[C@@H](CC(N)=O)C(=O)NC3(C(N)=O)CCOCC3)CCOCC2)C(C)(C)SSC1(C)C [Compound 6, [Propionic_acid]-[(D)Arg]-[Pen]-Q-T-W-Q-[Pen]-Phe[4-(2-aminoethoxy)]-[2-Nal]-[THP]-[Lys(COCF3)]-N-[THP]-NH2] | 8.6 nM |

Target: T1, IL-23R
Assay: cell-based
Conditions: not given

| SMILES | pIC50 |
| --- | --- |
| CC(=O)NCCCC[C@@H]1NC(=O)[C@H](Cc2c[nH]c3c(-c4ccccc4)cccc23)NC(=O)[C@H]([C@@H](C)O)NC(=O)[C@H](CCC(N)=O)NC(=O)[C@@H](NC(C)=O)CCSC[C@@H](C(=O)N[C@@H](Cc2ccc(OCCN)cc2)C(=O)N[C@@H](Cc2ccc3ccccc3c2)C(=O)N[C@@](C)(CCCCN)C(=O)N[C@@H](CCCCNC(C)=O)C(=O)N[C@@H](CC(N)=O)C(=O)N[C@@](C)(Cc2ccccc2)C(N)=O)NC1=O [Compound 67, Ac-[Abu]-Q-T-[W(7-Ph)]-[Lys(Ac)]-[Cys]-Phe[4-(2-aminoethoxy)]-[2-Nal]-[a-MeLys]-[Lys(Ac)]-N-[a-MePhe]-NH2] (Ac-[Abu(4-yl)]QT[Trp(7-Ph)]K(Ac)C[AEF][2Nal][αMeK]K(Ac)N[αMeF]-NH2; thioether 1-6) | 8.26 |
| CC(=O)NCCCC[C@@H]1NC(=O)[C@H](Cc2c[nH]c3c(C)cccc23)NC(=O)[C@@H](CN)NC(=O)[C@H](CC(N)=O)NC(=O)[C@@H](NC(C)=O)C(C)(C)SSC(C)(C)[C@@H](C(=O)N[C@@H](Cc2ccc(OCCN)cc2)C(=O)N[C@@H](Cc2ccc3ccccc3c2)C(=O)N[C@@](C)(CCCCN)C(=O)N[C@@H](CCCCNC(C)=O)C(=O)N[C@@H](CC(N)=O)C(=O)N[C@H](CC(C)C)C(N)=O)NC1=O [Compound 72, Ac-[Pen]-N-[(D)Dap]-[W(7-Me)]-[Lys(Ac)]-[Pen]-Phe[4-(2-aminoethoxy)]-[2-Nal]-[a-MeLys]-[Lys(Ac)]-N-[(D)Leu]-NH2] (Ac-[Pen]N[dDap][Trp(7-Me)]K(Ac)[Pen][AEF][2Nal][αMeK]K(Ac)N[dL]-NH2; disulfide 1-6) | 7.28 |
| CC(=O)NCCCC[C@@H]1NC(=O)[C@H](Cc2c[nH]c3c(C)cccc23)NC(=O)[C@H]([C@@H](C)O)NC(=O)[C@H](CC(N)=O)NC(=O)[C@@H](NC(C)=O)C(C)(C)SSC(C)(C)[C@@H](C(=O)N[C@@H](Cc2ccc(OCCN)cc2)C(=O)N[C@@H](Cc2ccc3ccccc3c2)C(=O)N[C@@](C)(CCCCN)C(=O)N[C@@H](CCCCNC(C)=O)C(=O)N[C@@H](CC(N)=O)C(=O)NC(C)(C)C(=O)N[C@H](CC(N)=O)Cc2ccccc2)NC1=O [Compound 71, Ac-[Pen]-N-T-[W(7-Me)]-[Lys(Ac)]-[Pen]-Phe[4-(2-aminoethoxy)]-[2-Nal]-[a-MeLys]-[Lys(Ac)]-N-[Aib]-[bhPhe]-NH2] | 8.47 |
| CC(=O)NCCCC[C@@H]1NC(=O)[C@H](Cc2c[nH]c3c(C)cccc23)NC(=O)[C@H]([C@@H](C)O)NC(=O)[C@H](CC(N)=O)NC(=O)[C@@H](NC(C)=O)C(C)(C)SSC(C)(C)[C@@H](C(=O)N[C@@H](Cc2ccc(OCCN)cc2)C(=O)N[C@@H](Cc2ccc3ccccc3c2)C(=O)N[C@@](C)(CCCCN)C(=O)N[C@@H](CCCCNC(C)=O)C(=O)N[C@@H](CC(N)=O)C(=O)NC(C)(C)C(=O)NCCCCCC(N)=O)NC1=O [Compound 70, Ac-[Pen]-N-T-[W(7-Me)]-[Lys(Ac)]-[Pen]-Phe[4-(2-aminoethoxy)]-[2-Nal]-[a-MeLys]-[Lys(Ac)]-N-[Aib-Ahx]-NH2] | 8.91 |
| CC(=O)NCCCC[C@@H]1NC(=O)[C@H](Cc2c[nH]c3c(C)cccc23)NC(=O)[C@H]([C@@H](C)O)NC(=O)[C@H](CC(N)=O)NC(=O)[C@@H](NC(C)=O)C(C)(C)SSC(C)(C)[C@@H](C(=O)N[C@@H](Cc2ccc(OCCN)cc2)C(=O)N[C@@H](Cc2ccc3ccccc3c2)C(=O)N[C@@](C)(CCCCN)C(=O)N[C@@H](CCCCNC(C)=O)C(=O)N[C@@H](CC(N)=O)C(=O)N[C@@H](Cc2ccc(N)cc2)C(N)=O)NC1=O [Compound 112, Ac-[Pen]-N-T-[W(7-Me)]-[Lys(Ac)]-[Pen]-Phe[4-(2-aminoethoxy)]-[2-Nal]-[a-MeLys]-[Lys(Ac)]-N-Phe[4-NH2]-NH2] | 8.68 |
| CC(=O)NCCCC[C@H](NC(=O)[C@](C)(CCCCN)NC(=O)[C@H](Cc1ccc2ccccc2c1)NC(=O)[C@H](Cc1ccc(OCCN)cc1)NC(=O)[C@H]1NC(=O)[C@H](CCCNC(N)=O)NC(=O)[C@H](Cc2c[nH]c3c(C)cccc23)NC(=O)[C@H]([C@@H](C)O)NC(=O)[C@H](CC(N)=O)NC(=O)[C@@H](NC(C)=O)C(C)(C)SSC1(C)C)C(=O)N[C@@H](CC(N)=O)C(=O)NC(C)(C)C(=O)N[C@H](Cc1ccc(O)cc1)C(N)=O [Compound 202, Ac-[Pen]-N-T-[W(7-Me)]-[Cit]-[Pen]-Phe[4-(2-aminoethoxy)]-[2-Nal]-[a-MeLys]-[Lys(Ac)]-N-[Aib]-[(D)Tyr]-NH2] (Ac-[Pen]NT[Trp(7-Me)][Cit][Pen][AEF][2Nal][αMeK]K(Ac)N[Aib][dY]-NH2; disulfide 1-6) | 9.20 |
| CC(=O)NCCCC[C@@H]1NC(=O)[C@H](Cc2c[nH]c3c(-c4ccccc4)cccc23)NC(=O)[C@H]([C@@H](C)O)NC(=O)[C@H](CCC(N)=O)NC(=O)[C@@H](NC(=O)[C@@H](CCCNC(=N)N)NC(C)=O)CCSC[C@@H](C(=O)N[C@@H](Cc2ccc(OCCN)cc2)C(=O)N[C@@H](Cc2ccc3ccccc3c2)C(=O)N[C@@](C)(CCCCN)C(=O)N[C@@H](CCCCNC(C)=O)C(=O)N[C@@H](CC(N)=O)C(=O)N[C@@](C)(Cc2ccccc2)C(N)=O)NC1=O [Compound 11, Ac-[(D)Arg]-[Abu]-Q-T-[W(7-Ph)]-[Lys(Ac)]-[Cys]-Phe[4-(2-aminoethoxy)]-[2-Nal]-[a-MeLys]-[Lys(Ac)]-N-[a-MePhe]-NH2] (Ac-[dR][Abu(4-yl)]QT[Trp(7-Ph)]K(Ac)C[AEF][2Nal][αMeK]K(Ac)N[αMeF]-NH2; thioether 2-7) | 7.86 |
| CC(=O)NCCCC[C@@H]1NC(=O)[C@H](Cc2c[nH]c3c(C)cccc23)NC(=O)[C@H]([C@@H](C)O)NC(=O)[C@H](CC(N)=O)NC(=O)[C@@H](NC(C)=O)C(C)(C)SSC(C)(C)[C@@H](C(=O)N[C@@H](Cc2ccc(OCCN)cc2)C(=O)N[C@@H](Cc2ccc3ccccc3c2)C(=O)N[C@@](C)(CCCCN)C(=O)N[C@@H](CCCCNC(C)=O)C(=O)N[C@@H](CC(N)=O)C(=O)N[C@H](CC(C)C)C(=O)N[C@@](C)(Cc2ccccc2)C(N)=O)NC1=O [Compound 68, Ac-[Pen]-N-T-[W(7-Me)]-[Lys(Ac)]-[Pen]-Phe[4-(2-aminoethoxy)]-[2-Nal]-[a-MeLys]-[Lys(Ac)]-N-[(D)Leu]-[aMePhe]-am] | 8.15 |
| CC(=O)NCCCC[C@@H]1NC(=O)[C@H](Cc2c[nH]c3c(C)cccc23)NC(=O)[C@@H](CCCCN)NC(=O)[C@H](CC(N)=O)NC(=O)[C@@H](NC(C)=O)C(C)(C)SSC(C)(C)[C@@H](C(=O)N[C@@H](Cc2ccc(OCCN)cc2)C(=O)N[C@@H](Cc2ccc3ccccc3c2)C(=O)N[C@@](C)(CCCCN)C(=O)N[C@@H](CCCCNC(C)=O)C(=O)N[C@@H](CC(N)=O)C(=O)N[C@H](CC(C)C)C(N)=O)NC1=O [Compound 73, Ac-[Pen]-N-[(D)Lys]-[W(7-Me)]-[Lys(Ac)]-[Pen]-Phe[4-(2-aminoethoxy)]-[2-Nal]-[a-MeLys]-[Lys(Ac)]-N-[(D)Leu]-NH2] (Ac-[Pen]N[dK][Trp(7-Me)]K(Ac)[Pen][AEF][2Nal][αMeK]K(Ac)N[dL]-NH2; disulfide 1-6) | 7.29 |
| CC(=O)NCCCC[C@@H]1NC(=O)[C@H](Cc2c[nH]c3c(C)cccc23)NC(=O)[C@H]([C@@H](C)O)NC(=O)[C@H](CCC(N)=O)NC(=O)[C@@H](NC(=O)[C@@H](CCCNC(=N)N)NC(C)=O)CCSC[C@@H](C(=O)N[C@@H](Cc2ccc(OCCN)cc2)C(=O)N[C@@H](Cc2ccc3ccccc3c2)C(=O)N[C@@](C)(CCCCN)C(=O)N[C@@H](CCCCNC(C)=O)C(=O)N[C@@H](CC(N)=O)C(=O)N[C@@](C)(Cc2ccccc2)C(N)=O)NC1=O [Compound 201, Ac-[(D)Arg]-[Abu]-Q-T-[W(7-Me)]-[Lys(Ac)]-[Cys]-Phe[4-(2-aminoethoxy)]-[2-Nal]-[a-MeLys]-[Lys(Ac)]-N-[a-MePhe]-NH2] (Ac-[dR][Abu(4-yl)]QT[Trp(7-Me)]K(Ac)C[AEF][2Nal][αMeK]K(Ac)N[αMeF]-NH2; thioether 2-7) | 7.90 |
| CC(=O)NCCCC[C@@H]1NC(=O)[C@H](Cc2c[nH]c3c(C)cccc23)NC(=O)[C@H]([C@@H](C)O)NC(=O)[C@H](CC(N)=O)NC(=O)[C@@H](NC(C)=O)C(C)(C)SSC(C)(C)[C@@H](C(=O)N[C@@H](Cc2ccc(OCCN)cc2)C(=O)N[C@@H](Cc2ccc3ccccc3c2)C(=O)N[C@@](C)(CCCCN)C(=O)N[C@@H](CCCCNC(C)=O)C(=O)N[C@@H](CC(N)=O)C(=O)N[C@H](CC(C)C)C(=O)N[C@](C)(Cc2ccccc2)C(N)=O)NC1=O [Compound 69, Ac-[Pen]-N-T-[W(7-Me)]-[Lys(Ac)]-[Pen]-Phe[4-(2-aminoethoxy)]-[2-Nal]-[a-MeLys]-[Lys(Ac)]-N-[(D)Leu]-[(D)aMePhe]-NH2] | 8.56 |
| CC(=O)NCCCC[C@@H]1NC(=O)[C@H](Cc2c[nH]c3c(C)cccc23)NC(=O)[C@@H](CC(=O)O)NC(=O)[C@H](CC(N)=O)NC(=O)[C@@H](NC(C)=O)C(C)(C)SSC(C)(C)[C@@H](C(=O)N[C@@H](Cc2ccc(OCCN)cc2)C(=O)N[C@@H](Cc2ccc3ccccc3c2)C(=O)N[C@@](C)(CCCCN)C(=O)N[C@@H](CCCCNC(C)=O)C(=O)N[C@@H](CC(N)=O)C(=O)N[C@H](CC(C)C)C(N)=O)NC1=O [Compound 74, Ac-[Pen]-N-[(D)Asp]-[W(7-Me)]-[Lys(Ac)]-[Pen]-Phe[4-(2-aminoethoxy)]-[2-Nal]-[a-MeLys]-[Lys(Ac)]-N-[(D)Leu]-NH2] (Ac-[Pen]N[dD][Trp(7-Me)]K(Ac)[Pen][AEF][2Nal][αMeK]K(Ac)N[dL]-NH2; disulfide 1-6) | 7.14 |

Target: T1, IL-23R
Assay: cell-based
Conditions: not given
Remark: another data set of the same source

| SMILES | pIC50 |
| --- | --- |
| CCC(=O)N[C@H](CCCNC(=N)N)C(=O)N[C@@H]1C(=O)N[C@@H](CCC(N)=O)C(=O)N[C@@H]([C@@H](C)O)C(=O)N[C@@H](Cc2c[nH]c3ccccc23)C(=O)N[C@@H](CCC(N)=O)C(=O)N[C@H](C(=O)N[C@@H](Cc2ccc(OCCN)cc2)C(=O)N[C@@H](Cc2ccc3ccccc3c2)C(=O)NC2(C(=O)N[C@@H](CCCCNC(=O)C(F)(F)F)C(=O)N[C@@H](CC(N)=O)C(=O)NC3(C(N)=O)CCOCC3)CCOCC2)C(C)(C)SSC1(C)C [Compound 6, [Propionic_acid]-[(D)Arg]-[Pen]-Q-T-W-Q-[Pen]-Phe[4-(2-aminoethoxy)]-[2-Nal]-[THP]-[Lys(COCF3)]-N-[THP]-NH2] | 7.77 |
